IC50 data for 21 compounds are collected here from patent US20220356186A1, “PERK INHIBITING PYRROLOPYRIMIDINE COMPOUNDS” (HiberCell, Inc., priority 2019, published 2022).

Read-outs that look alike come from different tables or passages of the source.

The target in assay [1] is T1, EIF2AK3 (PERK) catalytic domain (amino acids 536-1116) (Homo sapiens, UniProt Q9NZJ5).
T1 construct: EIF2AK3 (PERK) catalytic domain (amino acids 536-1116)
T1 sequence (Q9NZJ5 536-1116): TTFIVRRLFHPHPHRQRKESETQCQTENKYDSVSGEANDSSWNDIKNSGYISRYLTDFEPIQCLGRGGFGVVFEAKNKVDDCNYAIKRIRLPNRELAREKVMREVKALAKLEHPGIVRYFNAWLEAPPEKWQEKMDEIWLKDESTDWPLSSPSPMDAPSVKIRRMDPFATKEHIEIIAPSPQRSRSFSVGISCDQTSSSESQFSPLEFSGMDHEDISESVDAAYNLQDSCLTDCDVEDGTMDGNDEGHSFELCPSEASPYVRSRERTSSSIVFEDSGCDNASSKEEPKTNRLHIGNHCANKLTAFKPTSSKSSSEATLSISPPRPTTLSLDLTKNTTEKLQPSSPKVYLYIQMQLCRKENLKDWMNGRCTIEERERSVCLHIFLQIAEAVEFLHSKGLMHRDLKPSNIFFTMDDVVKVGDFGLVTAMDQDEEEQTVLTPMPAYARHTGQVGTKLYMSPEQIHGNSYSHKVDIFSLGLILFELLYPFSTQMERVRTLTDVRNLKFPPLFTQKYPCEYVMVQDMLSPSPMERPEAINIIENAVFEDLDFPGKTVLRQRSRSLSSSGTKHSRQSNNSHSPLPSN
The assay can be described thus: PERK in vitro activity assay (isolated), TR-FRET kinase assay. The class given is biochemical. Conditions: isolated PERK enzyme, 1.5 μM ATP; read-out: Biochemical IC50. The source says: PERK In Vitro Activity Assay (Isolated):
In vitro Inhibition of PERK Enzyme Activity (isolated) Recombinant human EIF2AK2 (PKR) catalytic domain (amino acids 252-551), EIF2AK3 (PERK) catalytic domain (amino acids 536-1116), GFP-eIF2a substrate, and Terbium-labelled phospho-eIF2a antibody is obtained (Invitrogen, Carlsbad, Calif.).
Express and purify HIS-SUMO-GCN2 catalytic domain (amino acids 584-1019) from E. coli. Perform TR-FRET kinase assays in the absence or presence of inhibitors in a reaction buffer consisting of 50 mM HEPES, pH 7.5, 10 mM MgCb, 1.0 mM EGTA, and 0.01% Brij-35, and 100-200 nM GFP-eIF2a substrate. […] Add test compound, initiate the reaction by addition of enzyme, and incubate at room temperature for 45 minutes. Stop the reaction by addition of EDTA to a final concentration of 10 mM, add Terbium-labelled phospho-eIF2a antibody at a final concentration of 2 nM, and incubate for 90 minutes. Monitor the resulting fluorescence in an EnVison® Multilabel reader (PerkinElmer, Waltham, Mass.). Determine TR-FRET ratios and the resulting IC50 values using a 4-parameter nonlinear logistic equation as shown: Y=(A+((B−A)/(1+((C/x)[…])))) where, Y=% specific inhibition, A=Bottom of the curve, B=Top of the curve, C=absolute IC50 (concentration causing 50% inhibition), and D=hill slope.
(Time-resolved FRET reads energy transfer from a long-lived donor to a nearby acceptor.)

Assay [2] concerns GFP-eIF2α in HEK293 cells. The assay can be described thus: PERK cellular assay, TR-FRET in HEK293-EGFP-eIF2a cells after tunicamycin-induced ER stress. The assay is classed as cell-based. Conditions: HEK293-EGFP-eIF2a cells, tunicamycin 2 hours, read-out: Cellular eIF2α IC50. The protocol:
Stable cell lines were created in HEK293 cells using lentiviral particles harboring an expression vector for GFP-eIF2α. Cells were selected using puromycin and enriched using fluorescence activated cell sorting against GFP. HEK293-EGFP-eIF2a cells were plated at 5000 cells/well in 384-well assay plates and incubated overnight at 37° C., 5% CO2. Inhibitor compounds were added to the wells by Echo acoustic dispensing and incubated for 30 minutes at 37° C., 5% CO2 prior to induction of ER stress by addition of tunicamycin to […] for 2 hours. Cells were lysed and TR-FRET was measured in an EnVision plate reader (PerkinElmer). FRET ratio data was normalized to signal from lysates treated with DMSO vehicle control and plotted as percent inhibition against 10-point; 3-fold dilution series of inhibitors. IC50 values were calculated using 4-parameter logistical fitting in XLFit.

On to `Cc1cc(NC(=O)Nc2ccccc2)ccc1-c1cn(C)c2ncnc(N)c12` [Example 170, 1-(4-(4-amino-7-methyl-7H-pyrrolo[2,3-d]pyrimidin-5-yl)-3-methylphenyl)-3-phenylurea], for which the IC50 in assay [1] is 1 to 25 nM; in assay [2] (Homo sapiens, HEK293, 2 h) it was 101 to 250 nM.
With `Cc1cc(NC(=O)Cc2ccc(Cl)cc2)ccc1-c1cn(C)c2ncnc(N)c12` [Example 151, N-(4-(4-amino-7-methyl-7H-pyrrolo[2,3-d]pyrimidin-5-yl)-3-methylphenyl)-2-(4-chlorophenyl)acetamide], the IC50 was in the range of 1 to 25 nM in assay [1] and 101 to 250 nM in assay [2] (Homo sapiens, HEK293, 2 h).
With `Cc1nc(N)c2c(-c3ccc(NC(=O)C(O)c4cccc(F)c4)cc3Cl)cn(C)c2n1` (stereo not drawn) [Example 91, N-(4-(4-amino-2,7-dimethyl-7H-pyrrolo[2,3-d]pyrimidin-5-yl)-3-chlorophenyl)-2-(3-fluorophenyl)-2-hydroxyacetamide], the values for the IC50 in assay [1] and in assay [2] were 101 to 250 nM and 501 to 1000 nM, respectively.
Take `Cc1nc(N)c2c(-c3ccc(NC(=O)C(O)c4cccc(C(F)(F)F)c4)cc3C)cn(C)c2n1` (stereo not drawn) [Example 50, N-(4-(4-amino-2,7-dimethyl-7H-pyrrolo[2,3-d]pyrimidin-5-yl)-3-methylphenyl)-2-hydroxy-2-(3-(trifluoromethyl)phenyl)acetamide]: the IC50 in assay [1] and in assay [2] was 1 to 25 nM throughout.
Consider `Cc1nc(N)c2c(-c3ccc(NC(=O)C(O)c4cc(F)cc(F)c4)cc3C)cn(C)c2n1` (stereo not drawn) [Example 53, N-(4-(4-amino-2,7-dimethyl-7H-pyrrolo[2,3-d]pyrimidin-5-yl)-3-methylphenyl)-2-(3,5-difluorophenyl)-2-hydroxyacetamide], for which the IC50 lay in the range of 26 to 50 nM in assay [1] and 251 to 500 nM in assay [2].
Turning to `Cc1cc(NC(=O)C(C)(O)c2ccccc2)ccc1-c1cn(C)c2ncnc(N)c12` (stereo not drawn) [Example 7, N-(4-(4-amino-7-methyl-7H-pyrrolo[2,3-d]pyrimidin-5-yl)-3-methylphenyl)-2-hydroxy-2-phenylpropanamide], the IC50 lay in the range of 51 to 100 nM in assay [1] and 101 to 250 nM in assay [2] (Homo sapiens, HEK293, 2 h).
Regarding `Cc1nc(N)c2c(-c3ccc(NC(=O)C(O)c4cc(F)cc(F)c4)c(F)c3F)cn(C)c2n1` (single isomer, unassigned) [Example 114, N-(4-(4-amino-2,7-dimethyl-7H-pyrrolo[2,3-d]pyrimidin-5-yl)-2,3-difluorophenyl)-2-(3,5-difluorophenyl)-2-hydroxyacetamide], the figures for the IC50 in assay [1] and in assay [2] were 251 to 500 nM and 1000 to 2000 nM, respectively.
As to `Cc1nc(N)c2c(-c3ccc(NC(=O)C(O)c4cccc(C(F)(F)F)c4)cc3C)cn(C)c2n1` (stereo not drawn) [Example 49, N-(4-(4-amino-2,7-dimethyl-7H-pyrrolo[2,3-d]pyrimidin-5-yl)-3-methylphenyl)-2-hydroxy-2-(3-(trifluoromethyl)phenyl)acetamide], the IC50 was in the range of 1 to 25 nM in assay [1] and 26 to 50 nM in assay [2].
With `Cc1nc(N)c2c(-c3ccc(NC(=O)C(O)c4cccc(C(F)(F)F)c4)c(F)c3F)cn(C)c2n1` (stereo not drawn) [Example 108, N-(4-(4-amino-2,7-dimethyl-7H-pyrrolo[2,3-d]pyrimidin-5-yl)-2,3-difluorophenyl)-2-hydroxy-2-(3-(trifluoromethyl)phenyl)acetamide], the IC50 in assay [1] and in assay [2] was 101 to 250 nM throughout.
Turning to `Cc1nc(N)c2c(-c3ccc(NC(=O)C(O)c4cc(F)cc(F)c4)cc3F)cn(C)c2n1` (stereo not drawn) [Example 84, N-(4-(4-amino-2,7-dimethyl-7H-pyrrolo[2,3-d]pyrimidin-5-yl)-3-fluorophenyl)-2-(3,5-difluorophenyl)-2-hydroxyacetamide], the values for the IC50 in assay [1] and in assay [2] were 51 to 100 nM and 101 to 250 nM, respectively.
Consider `Cc1cc(NC(=O)C(O)c2cccc(F)c2)cc(F)c1-c1cn(C)c2ncnc(N)c12` (stereo not drawn) [Example 124, N-(4-(4-amino-7-methyl-7H-pyrrolo[2,3-d]pyrimidin-5-yl)-3-fluoro-5-methylphenyl)-2-(3-fluorophenyl)-2-hydroxyacetamide], for which the IC50 in assay [1] fell in the range of 1 to 25 nM; in assay [2] (Homo sapiens, HEK293, 2 h), 1 to 25 nM.
For `Cc1cc(NC(=O)C(O)c2ccccc2)ccc1-c1cn(C)c2ncnc(N)c12` (stereo not drawn) [Example 5, N-(4-(4-amino-7-methyl-7H-pyrrolo[2,3-d]pyrimidin-5-yl)-3-methylphenyl)-2-hydroxy-2-phenylacetamide], the IC50 in assay [1] is 1 to 25 nM; in assay [2], 26 to 50 nM.
The like results for `Cc1nc(N)c2c(-c3ccc(NC(=O)C(O)c4cccc(Cl)c4)cc3F)cn(C)c2n1` (stereo not drawn) [Example 81, N-(4-(4-amino-2,7-dimethyl-7H-pyrrolo[2,3-d]pyrimidin-5-yl)-3-fluorophenyl)-2-(3-chlorophenyl)-2-hydroxyacetamide] were, in that order, 51 to 100 nM and 101 to 250 nM.
As to `Cc1cc(NC(=O)Cc2cccc3ccccc23)ccc1-c1cn(C)c2ncnc(N)c12` [Example 153, N-(4-(4-amino-7-methyl-7H-pyrrolo[2,3-d]pyrimidin-5-yl)-3-methylphenyl)-2-(naphthalen-1-yl)acetamide], the IC50 is 1 to 25 nM in assay [1] and 26 to 50 nM in assay [2] (Homo sapiens, HEK293, 2 h).
`Cc1cc(NC(=O)Cc2cccc(C(C)C)c2)ccc1-c1cn(C)c2ncnc(N)c12` [Example 148, N-(4-(4-amino-7-methyl-7H-pyrrolo[2,3-d]pyrimidin-5-yl)-3-methylphenyl)-2-(3-isopropylphenyl)acetamide]: the IC50 in assay [1] is 1 to 25 nM; in assay [2] (Homo sapiens, HEK293, 2 h) it was 101 to 250 nM.
In the case of `Cc1nc(N)c2c(-c3ccc(NC(=O)C(O)c4cccc(F)c4)cc3Cl)cn(C)c2n1` (stereo not drawn) [Example 92, N-(4-(4-amino-2,7-dimethyl-7H-pyrrolo[2,3-d]pyrimidin-5-yl)-3-chlorophenyl)-2-(3-fluorophenyl)-2-hydroxyacetamide], the IC50 in assay [1] lay within 1 to 25 nM; in assay [2], 51 to 100 nM.
The like results for `Cc1nc(N)c2c(-c3ccc(NC(=O)C(O)c4cccc(F)c4)c(F)c3)cn(C)c2n1` (stereo not drawn) [Example 89, N-(4-(4-amino-2,7-dimethyl-7H-pyrrolo[2,3-d]pyrimidin-5-yl)-2-fluorophenyl)-2-(3-fluorophenyl)-2-hydroxyacetamide] were, in that order, 251 to 500 nM and 2000 to 3000 nM.
`Cc1nc(N)c2c(-c3ccc(NC(=O)C(O)c4cccc(C(F)(F)F)n4)cc3C)cn(C)c2n1` (stereo not drawn) [Example 62, N-(4-(4-amino-2,7-dimethyl-7H-pyrrolo[2,3-d]pyrimidin-5-yl)-3-methylphenyl)-2-hydroxy-2-(6-(trifluoromethyl)pyridin-2-yl)acetamide]: the IC50 in assay [1] was 51 to 100 nM; in assay [2], 2000 to 3000 nM.
For `Cc1cc(NC(=O)C(O)c2cccc(C(F)(F)F)c2)ccc1-c1cn(C)c2ncnc(N)c12` (stereo not drawn) [Example 47, N-(4-(4-amino-7-methyl-7H-pyrrolo[2,3-d]pyrimidin-5-yl)-3-methylphenyl)-2-hydroxy-2-(3-(trifluoromethyl)phenyl)acetamide], the IC50 in assay [1] and in assay [2] was 1 to 25 nM throughout.
Take `Cc1nc(N)c2c(-c3ccc(NC(=O)C(O)c4cccc(Cl)c4)cc3Cl)cn(C)c2n1` (stereo not drawn) [Example 100, N-(4-(4-amino-2,7-dimethyl-7H-pyrrolo[2,3-d]pyrimidin-5-yl)-3-chlorophenyl)-2-(3-chlorophenyl)-2-hydroxyacetamide]: the IC50 in assay [1] was in the range of 26 to 50 nM; in assay [2], 101 to 250 nM.
On the same counts, the results for `Cc1nc(N)c2c(-c3cnc(NC(=O)C(O)c4cccc(F)c4)cc3C)cn(C)c2n1` (stereo not drawn) [Example 134, N-(5-(4-amino-2,7-dimethyl-7H-pyrrolo[2,3-d]pyrimidin-5-yl)-4-methylpyridin-2-yl)-2-(3-fluorophenyl)-2-hydroxyacetamide] are 1 to 25 nM and 101 to 250 nM.

As usually defined, the IC50 is the point on the concentration scale where inhibition reaches its midpoint.
